The values that follow are results of earlier work, collected in patent US20080104001A1, “ALGORITHM FOR ESTIMATION OF BINDING EQULIBRIA IN INCLUSION COMPLEXATION, HOST COMPOUNDS IDENTIFIED THEREBY AND COMPOSITIONS OF HOST COMPOUND AND PHARMACEUTICAL” (priority 2006, published 2008).

For one data set the following is noted: cross-validation set; literature values.
Regarding `Ic1ccc(I)cc1` [1,4 diiodobenzene], the “Log K(1:1) Measured” value is 3.18. Regarding `O=C(O)C12CCC(CC1)C2` [1-bicyclo[2.2.1]heptanecarboxylic acid], the “Log K(1:1) Measured” value is 4.18. For the compound `O=C(O)c1cccc(O)c1` [3-hydroxybenzoic acid], the “Log K(1:1) Measured” value was 2.46. Take `Nc1ccc(C(=O)O)cc1` [4-aminobenzoic acid]: the “Log K(1:1) Measured” value is listed as 2.70. Regarding `NC(=O)N1c2ccccc2C=Cc2ccccc21` [Carbamazepine], the “Log K(1:1) Measured” value is given as 2.83. With `CN[C@@H](C)[C@H](O)c1ccccc1` [Ephedrine], the “Log K(1:1) Measured” value is recorded as 2.25. In the case of `Nc1ccc(-c2ccc(N)cc2)cc1` [benzidine], the “Log K(1:1) Measured” value was 3.36.

Staying with this data set, now noted: training set; published stability constants (Connors, 1995).
Regarding `Cc1cccc(C)c1C` [1,2,3-trimethylbenzene], the “Log K(1:1)” value is recorded as 2.26.

`Cc1ccc(C)c(C)c1` [1,2,4-trimethylbenzene]: the “Log K(1:1)” value is on record as 2.94. Turning to `Oc1ccccc1O` [1,2-benzenediol], the “Log K(1:1)” value was 2.04. On to `Oc1cccc(O)c1` [1,3-benzenediol], for which the “Log K(1:1)” value is recorded as 2.04. Take `Oc1ccc(O)cc1` [1,4-benzenediol]: the “Log K(1:1)” value was 2.09. `Brc1ccc(Br)cc1` [1,4-dibromobenzene]: the “Log K(1:1)” value was 2.97. Turning to `Clc1ccc(Cl)cc1` [1,4-dichlorobenzene], the “Log K(1:1)” value is 2.51. Turning to `Fc1ccc(F)cc1` [1,4-difluorobenzene], the “Log K(1:1)” value was 1.6.

On to `Cc1ccc(C)c2ccccc12` [1,4-dimethylnaphthalene], for which the “Log K(1:1)” value is 2.54.

Consider `Cc1cccc2c(C)cccc12` [1,5-dimethylnaphthalene], for which the “Log K(1:1)” value is reported as 2.3. For the compound `O=C(O)C12CC3CC(CC(C3)C1)C2` [1-adamantanecarboxylic-acid], the “Log K(1:1)” value is 5.81. For `CC(C)c1ccccc1` [1-methylethylbenzene], the “Log K(1:1)” value is listed as 3.08. With `Cc1cccc2ccccc12` [1-methylnaphthalene], the “Log K(1:1)” value is 2.64.

As to `Oc1cccc2ccccc12` [1-naphthol], the “Log K(1:1)” value is reported as 2.09. With `CCCCCCCCO` [1-octanol], the “Log K(1:1)” value is listed as 3.29.

With `CCCCCO` [1-pentanol], the “Log K(1:1)” value is given as 1.97. With `Cc1ccc2ccccc2c1` [2-methylnaphthalene], the “Log K(1:1)” value is on record as 2.85. Take `Cc1ccccc1O` [2-methylphenol]: the “Log K(1:1)” value is listed as 2.12.

For the compound `Oc1ccc2ccccc2c1` [2-naphthol], the “Log K(1:1)” value is on record as 2.77.

For `CCCCCCC(C)O` (stereo not drawn) [2-octanol], the “Log K(1:1)” value is 3.13. With `CCCC(C)O` (stereo not drawn) [2-pentanol], the “Log K(1:1)” value is 1.65.

Turning to `CC(C)CCO` [3-methyl-1-butanol], the “Log K(1:1)” value is 2.21.

Take `Cc1cccc(O)c1` [3-methylphenol]: the “Log K(1:1)” value is 2.34. As to `CCC1(CC)C(=O)NC(=S)NC1=O` [5,5-diethyl-2-thiobarbituric acid], the “Log K(1:1)” value is 2.47. For the compound `CCCCCCCC1(CC)C(=O)NC(=O)NC1=O` [5-ethyl-5-heptylbarbituric acid], the “Log K(1:1)” value is reported as 3.61. With `CCCCCC1(CC)C(=O)NC(=O)NC1=O` [5-ethyl-5-pentylbarbituric acid], the “Log K(1:1)” value is 3.1.

`CCCC1(CC)C(=O)NC(=O)NC1=O` [5-ethyl-5-propylbarbituric acid]: the “Log K(1:1)” value is 2.19.

On to `C1=Cc2cccc3cccc1c23` [Acenaphthylene], for which the “Log K(1:1)” value was 2.41. Regarding `c1ccc2nc3ccccc3cc2c1` [Acridine], the “Log K(1:1)” value was 2.46. In the case of `Nc1ccccc1` [Aniline], the “Log K(1:1)” value was 1.89.

`COc1ccccc1` [Anisole]: the “Log K(1:1)” value is on record as 2.14.

For the compound `C[C@]12CCC(=O)C=C1CC[C@@H]1[C@@H]2C(=O)C[C@@]2(C)[C@H]1CC[C@]2(O)C(=O)CO` [Cortisone], the “Log K(1:1)” value is listed as 3.39.

As for `CCC1(C2=CCCCC2)C(=O)NC(=O)NC1=O` [Cyclobarbital], the “Log K(1:1)” value is listed as 3.11. With `OC1CCCCC1` [Cyclohexanol], the “Log K(1:1)” value is listed as 2.75.

With `C1CCCCCCC1` [Cyclooctane], the “Log K(1:1)” value was 3.23.

`O=C(O)Cc1ccccc1Nc1c(Cl)cccc1Cl` [Diclofenac]: the “Log K(1:1)” value is on record as 2.18. `CCCCCCC` [Heptane]: the “Log K(1:1)” value was 1.84. As for `CCN(CC)c1ccccc1` [N,N-diethylaniline], the “Log K(1:1)” value is on record as 2.96. For the compound `O=C1NC(=O)C(c2ccccc2)(c2ccccc2)N1` [Phenytoin], the “Log K(1:1)” value is on record as 2.93. On to `C[C@]12C=CC(=O)C=C1CC[C@@H]1[C@@H]2[C@@H](O)C[C@@]2(C)[C@H]1CC[C@]2(O)C(=O)CO` [Prednisolone], for which the “Log K(1:1)” value was 3.45. In the case of `CC(=O)[C@H]1CC[C@H]2[C@@H]3CCC4=CC(=O)CC[C@]4(C)[C@H]3CC[C@]12C` [Progesterone], the “Log K(1:1)” value is given as 4.28. For the compound `C=CCC1(C(C)CCC)C(=O)NC(=O)NC1=O` (stereo not drawn) [Secobarbital], the “Log K(1:1)” value was 3.26.

With `C[C@]12CC[C@H]3[C@@H](CCC4=CC(=O)CC[C@@]43C)[C@@H]1CC[C@@H]2O` [Testosterone], the “Log K(1:1)” value was 3.8. Turning to `C[C@]12C=CC(=O)C=C1CC[C@H]1[C@@H]3C[C@@H](O)[C@](O)(C(=O)CO)[C@@]3(C)C[C@H](O)[C@@]12F` [Triamcinolone], the “Log K(1:1)” value is reported as 3.37. Take `c1ccc2cc3ccccc3cc2c1` [anthracene]: the “Log K(1:1)” value is 3.41. On to `c1ccccc1` [benzene], for which the “Log K(1:1)” value is reported as 2.17. On to `c1ccc2c(c1)cc1ccc3cccc4ccc2c1c34` [benzo[a]pyrene], for which the “Log K(1:1)” value is reported as 3.34.

With `O=C(c1ccccc1)c1ccccc1` [benzophenone], the “Log K(1:1)” value is recorded as 3.08. Take `OCc1ccccc1` [benzyl alcohol]: the “Log K(1:1)” value is reported as 1.7. As to `CCCCC(=O)O[C@]1(C(=O)CO)[C@@H](C)C[C@H]2[C@@H]3CCC4=CC(=O)C=C[C@]4(C)[C@@]3(F)[C@@H](O)C[C@@]21C` [betamethasone-17-valerate], the “Log K(1:1)” value is 3.32. Turning to `Brc1ccccc1` [bromobenzene], the “Log K(1:1)” value was 2.49. For `CCCCOC(=O)c1ccc(O)cc1` [butylparaben], the “Log K(1:1)” value is listed as 3.32.

On to `Clc1ccccc1` [chlorobenzene], for which the “Log K(1:1)” value is given as 2.2.

The data set is the same for the next values; noted with them: validation set; known binding constants.
For the compound `Oc1ccc(O)cc1` [1,4-benzenediol], the “Log K(1:1)” value was 2.09.

For the compound `CC(C)(C)CO` [2,2-dimethylpropanol], the “Log K(1:1)” value is 2.69. For the compound `Cc1cccc(O)c1` [3-methylphenol], the “Log K(1:1)” value is 2.34.

As for `c1cc2c3c(cccc3c1)CC2` [Acenaphthene], the “Log K(1:1)” value is 2.01. In the case of `CC(=O)Nc1ccc(O)cc1` [Acetaminophen], the “Log K(1:1)” value was 2.03. With `OC1CCCCCCC1` [Cyclooctanol], the “Log K(1:1)” value is 3.3. In the case of `CN[C@@H](C)[C@H](O)c1ccccc1` [Ephedrine], the “Log K(1:1)” value is on record as 2.25. For the compound `FF` [Fluorine], the “Log K(1:1)” value was 3.13. In the case of `C[C@]12CCC(=O)C=C1CC[C@@H]1[C@@H]2[C@@H](O)C[C@@]2(C)[C@H]1CC[C@]2(O)C(=O)CO` [Hydrocortisone], the “Log K(1:1)” value was 3.46.

As for `c1ccc2ccccc2c1` [Naphthalene], the “Log K(1:1)” value is listed as 2.87.

As to `CC(=O)Oc1ccccc1C(=O)O` [acetylsalicylic acid], the “Log K(1:1)” value was 3.23.

As to `O=C(O)C=Cc1ccccc1` [cinnamic acid], the “Log K(1:1)” value is 2.57.
